Earlier results, collected in patent US20220160669A1, “PARENTERAL NUTRITION FORMULATION” (BAXTER INTERNATIONAL INC., priority 2020, published 2022).

Settings: human, in vivo; cited from earlier work

CCCC(=O)[O-].[Na+] [sodium butyrate]
clearance rate: 83 ± 12 mL/min/kg
